Assay results as given in BigSolDB 2.1.

Settings: in water

What does the source list for `N#CN=C(N)N`?
solubility (mole fraction) (278.15 K): 0.00303; solubility (mole fraction) (283.15 K): 0.00387; solubility (mole fraction) (288.15 K): 0.00526; solubility (mole fraction) (293.15 K): 0.00707; solubility (mole fraction) (298.15 K): 0.00891; solubility (mole fraction) (303.15 K): 0.0114; solubility (mole fraction) (308.15 K): 0.0141; solubility (mole fraction) (313.15 K): 0.0172; solubility (mole fraction) (318.15 K): 0.021; solubility (mole fraction) (323.15 K): 0.0265
